Experimental data as given in PubChem BioAssay AID1645848.
In brackets after ≈: the same amount, converted by molar mass.

Settings: buffer; pH 7.4; 6.0 h; 150.0 µM

Row | Compound | solubility kinetic [µg/mL]
1 | Fc1cnc(-c2ccccc2C(F)F)nc1NCC1CCN(c2cnccn2)CC1 | < 1
2 | N[C@@H](Cc1cc(Br)c(O)c(Br)c1)C(=O)O | > 50
3 | c1ccc2c(NC3CCCCC3)nc(-c3ccncc3)nc2c1 | < 1
4 | Nc1nc2c(s1)C(c1ccc(F)cc1F)CC(=O)N2 (centres undefined) | 23.2 (≈ 82.4 µM)
5 | O=S(=O)(Nc1nccs1)c1ccc(NCc2ccc(Br)cc2O)cc1 | < 1
6 | O=c1cc(CSc2ccc(Cl)cc2)nc(-c2ccccn2)[nH]1 | 1.18 (≈ 3.58 µM)
7 | Cc1ccc(NS(=O)(=O)c2ccccc2C(=O)Nc2nc(-c3ccccc3)cs2)cc1 | < 1
8 | CC(C)NC(=O)c1nc(-c2ccc(Cl)nc2)c2cnccn12 | 16.5 (≈ 52.2 µM)
9 | COc1cc(/C=C(\C#N)C(=O)c2ccc(O)c(O)c2)cc(I)c1O | 50.3 (≈ 115 µM)
10 | COCC(C)Nc1ncnc2c1cnn2-c1ccc(C)c(C)c1 (centres undefined) | 5.58 (≈ 17.9 µM)
11 | COC(=O)[C@@]12OC[C@]34[C@H]([C@@H](O)[C@@H]1O)[C@@]1(C)CC(=O)C(O)=C(C)[C@@H]1C[C@H]3OC(=O)[C@H](OC(=O)/C=C(\C)C(C)C)[C@@H]24 | > 81
12 | Cc1nn(CC(=O)NCCCN2CCC(N3CCCCC3)CC2)c(=O)c2cc(-c3ccccc3)nn12 | > 73
13 | CS(=O)(=O)c1cccc(-c2csc(N3CCC(C(N)=O)CC3)n2)c1 | 11.7 (≈ 32 µM)
14 | Cc1nn2c(c1-c1ccccc1OCc1ccccc1)N(C(=O)Cc1ccc3c(c1)OCO3)CCC2 | < 1
15 | CC[C@H](Nc1ncnc2nc[nH]c12)c1nc2cccc(F)c2c(=O)n1-c1ccccc1 | > 61
16 | NC(=O)C1CCN(c2nc(-c3ccc(OCc4ccccc4)cc3)cs2)CC1 | < 1
17 | CCC(CC)c1cc([C@H]2CN3CC[C@H]2C[C@@H]3CNC(=O)COc2ccccc2)nc(-c2ccncc2)n1 | > 74
18 | Cc1ccnc(NC(=S)N2CCN(c3ccccc3C(F)(F)F)CC2)c1 | 8.07 (≈ 21.2 µM)
19 | CCCCCNc1oc(-c2cccc3ccccc23)nc1C#N | < 1
20 | CCOC(=O)c1ccnc2cc(C(OCCN3CCCCC3)c3ccccc3Cl)sc12 (centres undefined) | 56.3 (≈ 123 µM)
21 | C[C@H]1[C@@H](CCC(=O)Nc2ccc(F)cc2)O[C@@H]2O[C@]3(C)CC[C@@H]4[C@H](C)CC[C@@H]1[C@@]24OO3 | 24 (≈ 55.3 µM)

Next, values leading:

Row | solubility kinetic [µg/mL] | Compound
22 | 7.28 (≈ 29.3 µM) | C=C1C(=O)O[C@@H]2[C@H]3O[C@]3(C)CC/C=C(\C)CC[C@@H]12
23 | < 1 | Cc1ccccc1CSc1nc2ncc(Br)cc2[nH]1
24 | < 1 | CNc1oc(-c2cccc3ccccc23)nc1C(=O)OC
25 | 1.79 (≈ 4.47 µM) | Oc1ccc(CN2CC(CNc3ccccc3)C3(C2)CN(c2ccccc2)C3)cc1 (centres undefined)
26 | < 1 | CCN1C(=O)c2ccccc2S(=O)c2ccc(NC(=O)Cc3ccc(F)cc3)cc21 (centres undefined)
27 | < 1 | CCNC(=O)Nc1ncc(-c2cc(-c3c(C)cc(OC)cc3C)nc(-c3cnccn3)n2)s1
28 | 55.6 (≈ 124 µM) | Cc1nn(Cc2ccccc2Cl)c(C)c1CN(C)CC(O)COc1ccc(Cl)cc1 (centres undefined)
29 | < 1 | Cc1cccc(-n2c(C)cc(C=C(C#N)C#N)c2C)c1
30 | 2.08 (≈ 5.13 µM) | COc1cccc(CN(C)c2ccc([S+](=O)([O-])Nc3nccs3)cc2)c1O
31 | < 1 | COc1c(NS(=O)(=O)c2ccc(C)cc2)cccc1C(=O)Nc1nc(-c2ccccc2)cs1
32 | > 58 | CCOc1ccc(CCNC(=O)c2ccnn2Cc2ccccn2)cc1OCC
33 | 5.01 (≈ 13.2 µM) | CC(=O)NC1CCN(c2nc(-c3ccc(Br)cc3)cs2)CC1
34 | 2.16 (≈ 5.24 µM) | CC(=O)c1c(C)[nH]c(C(=O)Nc2cccc([S+](=O)([O-])Nc3ccccc3)c2)c1C
35 | 8.9 (≈ 26.3 µM) | NC1CCN(c2nc(-c3ccc(Br)cc3)cs2)CC1
36 | < 1 | NC(=O)C1CCN(c2ncc(-c3ccc(Cl)cc3)s2)CC1
37 | 1.83 (≈ 4.39 µM) | O=C1CCCC2=C1C(c1[nH]ncc1Cl)N=C(Nc1nc3c(Cl)cccc3o1)N2 (centres undefined)
38 | 40.8 (≈ 122 µM) | O=C(NC1CCCc2c1cnn2-c1ccc(O)cc1)c1ccccn1 (centres undefined)
39 | < 1 | Cc1ccc(NC(=O)c2cc(-c3ccc(C)o3)nc3ccccc23)nc1
40 | 27.7 (≈ 66.9 µM) | CC(C)c1ccc(CC(=O)N2CCCc3ncc(C(=O)Nc4cccnc4)cc32)cc1
41 | 1.1 (≈ 2.65 µM) | O=C(Nc1ccc2oc(-c3cccnc3)nc2c1)c1ccc(-c2cccc(Cl)c2)o1
42 | 4.92 (≈ 9.5 µM) | COc1cc2c(C(=O)N3CCN(c4cccc(C(F)(F)F)c4)CC3)cn(CC(C)C)c(=O)c2cc1OC
43 | 37.7 (≈ 109 µM) | Cc1cccc(-n2cnc3cc(C(=O)N4CCCC(C)(C)C4)ccc32)c1
44 | 8.24 (≈ 22.4 µM) | NC(=O)C1CCN(c2nnc(-c3ccc(Br)cc3)s2)CC1
45 | > 61 | COc1cc2c(cc1-c1c(C)noc1C)ncc1[nH]c(=O)n([C@H](C)c3ccccn3)c12
46 | < 1 | CNc1nc(-c2cccc3ccccc23)ccc1C#N
47 | 34.6 (≈ 100 µM) | NC(=O)C1CCN(c2nc(-c3ccc4c(c3)OCCO4)cs2)CC1
48 | 0.005 (≈ 0.0103 µM) | Cc1ccc(S(=O)(=O)Nc2cnccc2C(=O)Nc2nc(-c3ccccc3Cl)cs2)cc1
49 | 14.7 (≈ 40.8 µM) | Cc1nc2nc(NC(=O)c3ccc(C(C)(C)C)cc3)[nH]n2c(=O)c1Cl
